The source made the active and inactive calls. The rule behind the calls is not given here.
Experiments:
MDA-MB-231 [1] = assay: Induction of ferroptosis in human MDA-MB-231 cells assessed as increase in intracellular ferrous ion level at 0.5 to 2 uM incubated for 24 hrs by ferroOrange probe based confocal laser scanning microscopic analysis; assay type: functional, cell-based; settings: dose 0.5-2 µM
MDA-MB-231 [2] = assay: Antitumor activity against human MDA-MB-231 cells xenografted in BALB/c mouse assessed as decrease in GPX4 expression at 20 mg/kg,ip administrated for 21 consecutive days by immunohistochemistry; assay type: functional, organism-based
[3] = Toxicity in BALB/c mouse xenografted with human MDA-MB-231 cells assessed as morphological change in lung at 40 mg/kg,ip administrated for 21 consecutive days by hematoxylin and eosin staining based analysis; assay type: organism-based; settings: in vivo
HCT-116 [4] = assay: Induction of ferroptosis in human HCT-116 cells assessed as downregulation of GPX4 expression incubated for 24 hrs by Western blotting analysis; assay type: functional, cell-based
HCT-116 [5] = assay: Induction of cell cycle arrest in human HCT-116 cells assessed as accumulation of cells at G1 phase at 0.5 to 2 uM incubated for 24 hrs by RNase/PI staining based flow cytometric analysis; assay type: functional; settings: dose 0.5-2 µM
MDA-MB-231 [6] = assay: Antitumor activity against human MDA-MB-231 cells xenografted in BALB/c mouse assessed as decrease in phosphorylated Rb expression at 20 mg/kg,ip administrated for 21 consecutive days by immunohistochemistry; assay type: functional, organism-based
HCT-116 [7] = assay: Induction of ferroptosis in human HCT-116 cells assessed as increase in intracellular ferrous ion level at 0.5 to 2 uM incubated for 24 hrs by ferroOrange probe based flow cytometric analysis; assay type: functional, cell-based; settings: dose 0.5-2 µM
MDA-MB-231 [8] = assay: Induction of ferroptosis in human MDA-MB-231 cells assessed as downregulation of GPX4 expression incubated for 24 hrs by Western blotting analysis; assay type: functional, cell-based
HCT-116 [9] = assay: Induction of cell cycle arrest in human HCT-116 cells assessed as downregulation of E2F1 expression at 0.5 to 2 uM incubated for 24 hrs by Western blotting analysis; assay type: functional, cell-based; settings: dose 0.5-2 µM
MDA-MB-231 [10] = assay: Induction of apoptosis in human MDA-MB-231 cells assessed as upregulation of Bax expression at 0.5 to 2 uM incubated for 24 hrs by Western blotting analysis; assay type: functional, cell-based; settings: dose 0.5-2 µM
[11] = Half life in Sprague-Dawley rat at 10 mg/kg,iv administration measured upto 24 hrs by LC-MS/MS analysis; assay type: ADME, organism-based; settings: in vivo
MDA-MB-231 [12] = assay: Induction of cell cycle arrest in human MDA-MB-231 cells assessed as accumulation of cells at G1 phase at 0.5 to 2 uM incubated for 24 hrs by RNase/PI staining based flow cytometric analysis; assay type: functional; settings: dose 0.5-2 µM
A549 = assay: cells; settings: Homo sapiens, A549, 48 h
Description: Antiproliferative activity against human A549 cells assessed as inhibition of cell growth incubated for 48 hrs by CCK-8 assay

[13] = Toxicity in BALB/c mouse xenografted with human MDA-MB-231 cells assessed as change in body weight at 20 mg/kg,ip administrated for 21 consecutive days; assay type: organism-based; settings: in vivo
MDA-MB-231 [14] = assay: Induction of cell cycle arrest in human MDA-MB-231 cells assessed as downregulation of E2F1 expression at 0.5 to 2 uM incubated for 24 hrs by Western blotting analysis; assay type: functional, cell-based; settings: dose 0.5-2 µM
[15] = Toxicity in BALB/c mouse xenografted with human MDA-MB-231 cells assessed as morphological change in liver at 40 mg/kg,ip administrated for 21 consecutive days by hematoxylin and eosin staining based analysis; assay type: organism-based; settings: in vivo
MDA-MB-231 [16] = assay: Induction of cell cycle arrest in human MDA-MB-231 cells assessed as downregulation of phoshorylated Rb at 0.5 to 2 uM incubated for 24 hrs by Western blotting analysis; assay type: functional, cell-based; settings: dose 0.5-2 µM
[17] = Toxicity in BALB/c mouse xenografted with human MDA-MB-231 cells assessed as morphological change in heart at 20 mg/kg,ip administrated for 21 consecutive days by hematoxylin and eosin staining based analysis; assay type: organism-based; settings: in vivo
MDA-MB-231 [18] = assay: Induction of apoptosis in human MDA-MB-231 cells assessed as downregulation of BCL-2 expression at 0.5 to 2 uM incubated for 24 hrs by Western blotting analysis; assay type: functional, cell-based; settings: dose 0.5-2 µM
[19] = Cmax in Sprague-Dawley rat at 10 mg/kg,iv administration measured upto 24 hrs by LC-MS/MS analysis; assay type: ADME, organism-based; settings: in vivo
HepG2 = assay: cells; settings: Homo sapiens, HepG2, 48 h
Description: Antiproliferative activity against human HepG2 cells assessed as inhibition of cell growth incubated for 48 hrs by CCK-8 assay

## COc1ccc2c(c1)NC(=O)/C2=C1\Nc2ccccc2\C1=N/OCCCNC(=O)CCn1cc(COc2ccc(N(C(=O)CCl)C(C(=O)NCCc3ccccc3)c3cccs3)cc2Cl)nn1 (stereo unspecified)
MDA-MB-231 [1]
  Activity: Active
MDA-MB-231 [2]
  Activity: Active
[3]
  Activity: Non-Toxic
HCT-116 [4]
  Activity: Dose-Dependent Effect
HCT-116 [5]
  Activity: Active
MDA-MB-231 [6]
  Activity: Active
HCT-116 [7]
  Activity: Active
MDA-MB-231 [8]
  Activity: Dose-Dependent Effect
HCT-116 [9]
  Activity: Active
MDA-MB-231 [10]
  Activity: Active
[11]
  half-life: 324 min
MDA-MB-231 [12]
  Activity: Active
A549
  IC50: 1020 nM
[13]
  Activity: Non-Toxic
MDA-MB-231 [14]
  Activity: Active
[15]
  Activity: Non-Toxic
MDA-MB-231 [16]
  Activity: Active
[17]
  Activity: Non-Toxic
MDA-MB-231 [18]
  Activity: Active
[19]
  Cmax: 9230 ng/mL
HepG2
  IC50: 1490 nM
